Measured values published in patent US20050090505A1, “Methods of reducing risk of infection from pathogens” (priority 2003, published 2005).
Counter-ions that a name gives are not always drawn. Like-named read-outs stand apart in the source and are kept apart here.

Target: T1, airway epithelial sodium currents (sodium channel) (UniProt A0A8I3MKE6+A0A8I3Q679+Q95165)
T1 sequence (A0A8I3MKE6 1-646): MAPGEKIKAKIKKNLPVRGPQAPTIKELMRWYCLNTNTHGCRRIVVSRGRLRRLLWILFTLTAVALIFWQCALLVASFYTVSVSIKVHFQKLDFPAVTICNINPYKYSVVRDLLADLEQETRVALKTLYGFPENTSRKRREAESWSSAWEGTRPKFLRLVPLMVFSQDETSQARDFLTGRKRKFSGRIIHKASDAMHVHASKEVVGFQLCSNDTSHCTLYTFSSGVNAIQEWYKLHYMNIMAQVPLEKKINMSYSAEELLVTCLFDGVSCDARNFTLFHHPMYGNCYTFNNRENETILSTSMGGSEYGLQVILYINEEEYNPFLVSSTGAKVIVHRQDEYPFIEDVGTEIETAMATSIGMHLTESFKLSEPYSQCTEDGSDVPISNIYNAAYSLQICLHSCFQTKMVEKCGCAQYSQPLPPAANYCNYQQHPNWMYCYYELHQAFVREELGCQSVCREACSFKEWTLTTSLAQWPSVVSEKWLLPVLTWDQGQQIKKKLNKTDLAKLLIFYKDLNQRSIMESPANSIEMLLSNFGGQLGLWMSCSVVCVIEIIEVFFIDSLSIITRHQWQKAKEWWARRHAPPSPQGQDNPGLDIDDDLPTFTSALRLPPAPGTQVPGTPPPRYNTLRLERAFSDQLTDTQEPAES
T1 sequence (A0A8I3Q679 1-649): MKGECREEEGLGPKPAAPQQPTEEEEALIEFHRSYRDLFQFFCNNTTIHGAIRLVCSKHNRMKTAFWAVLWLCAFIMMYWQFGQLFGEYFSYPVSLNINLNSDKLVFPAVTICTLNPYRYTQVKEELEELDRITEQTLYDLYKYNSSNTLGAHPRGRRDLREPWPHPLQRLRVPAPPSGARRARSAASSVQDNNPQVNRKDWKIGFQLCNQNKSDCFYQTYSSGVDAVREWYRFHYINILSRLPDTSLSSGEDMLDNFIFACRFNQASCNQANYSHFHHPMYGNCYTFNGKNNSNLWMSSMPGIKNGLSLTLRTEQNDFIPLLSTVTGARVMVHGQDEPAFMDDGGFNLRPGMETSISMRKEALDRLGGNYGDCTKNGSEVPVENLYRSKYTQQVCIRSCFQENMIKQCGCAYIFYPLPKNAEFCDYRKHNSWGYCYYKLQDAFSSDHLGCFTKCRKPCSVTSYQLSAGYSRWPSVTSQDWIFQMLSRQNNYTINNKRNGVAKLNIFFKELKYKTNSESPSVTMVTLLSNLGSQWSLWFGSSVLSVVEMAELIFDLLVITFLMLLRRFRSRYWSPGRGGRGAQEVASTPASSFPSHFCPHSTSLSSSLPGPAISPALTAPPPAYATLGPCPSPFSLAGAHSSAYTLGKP
T1 sequence (Q95165 1-641): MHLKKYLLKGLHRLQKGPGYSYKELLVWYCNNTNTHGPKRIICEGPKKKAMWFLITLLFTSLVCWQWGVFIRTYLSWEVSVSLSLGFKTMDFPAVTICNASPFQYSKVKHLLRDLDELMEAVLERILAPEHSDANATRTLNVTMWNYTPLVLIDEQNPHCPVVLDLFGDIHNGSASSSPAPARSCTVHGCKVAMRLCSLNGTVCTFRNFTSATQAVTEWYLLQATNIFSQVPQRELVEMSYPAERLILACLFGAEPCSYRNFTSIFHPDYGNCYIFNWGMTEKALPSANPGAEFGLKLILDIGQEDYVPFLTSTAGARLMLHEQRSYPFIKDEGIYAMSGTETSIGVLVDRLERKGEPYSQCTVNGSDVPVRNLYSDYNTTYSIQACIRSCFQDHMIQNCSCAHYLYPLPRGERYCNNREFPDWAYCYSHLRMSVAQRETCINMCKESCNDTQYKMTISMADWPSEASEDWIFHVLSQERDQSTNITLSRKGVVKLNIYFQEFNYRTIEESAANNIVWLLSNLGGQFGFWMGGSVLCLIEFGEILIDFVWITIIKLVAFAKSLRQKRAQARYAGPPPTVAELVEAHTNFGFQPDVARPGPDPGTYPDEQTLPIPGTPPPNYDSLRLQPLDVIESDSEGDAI
Assay: Sodium channel blocking activity: inhibition of short circuit current (ISC) in airway epithelial monolayers mounted in Ussing chambers
Format: cell-based, human, dog, sheep or rodent
Details: for Fold Amiloride** (PSA 4022 = 100): relative potency for PSA 4022 = 100 using EC50 from PSA 4022 in same run; for EC50: mean ± spread
Method: In Vitro Measure of Sodium Channel Blocking Activity and Reversibility
One assay used to assess mechanism of action and/or potency of the compounds of the present invention involves the determination of lumenal drug inhibition of airway epithelial sodium currents measured under short circuit current (ISC) using airway epithelial monolayers mounted in Ussing chambers. Cells obtained from freshly excised human, dog, sheep or rodent airways are seeded onto porous 0.4 micron Snapwell™ Inserts (CoStar), cultured at air-liquid interface (ALI) conditions in hormonally defined media, and assayed for sodium transport activity (ISC) while bathed in Krebs Bicarbonate Ringer (KBR) in Using chambers. All test drug additions are to the lumenal bath with half-log dose addition protocols (from 1×10^−11 M to 3×10^−5 M), and the cumulative change in ISC (inhibition) recorded. All drugs are prepared in dimethyl sulfoxide as stock solutions at a concentration of 1×10^−2 M and stored at −20° C. Eight preparations are typically run in parallel; two preparations per run incorporate amiloride and/or benzamil as positive controls. After the maximal concentration (5×10^−5 M) is administered, the lumenal bath is exchanged three times with fresh drug-free KBR solution, and the resultant ISC measured after each wash for approximately 5 minutes in duration. Reversibility is defined as the percent return to the baseline value for sodium current after the third wash. All data from the voltage clamps are collected via a computer interface and analyzed off-line.
Dose-effect relationships for all compounds are considered and analyzed by the Prism 3.0 program. IC50 values, maximal effective concentrations, and reversibility are calculated and compared to amiloride and benzamil as positive controls.

[1] = Selected Alaphatic Pyrazinoylguanidines (Formula II)
[2] = Selected Cyclic Pyrazinoylguanidines (Formula III)

Row | Structure (SMILES) | Fold Amiloride** (PSA 4022 = 100) (Alaphatic Pyrazinoylguanidines) | EC50 [1] | further results
1 | CN(C)C(=O)COc1ccc(CCCCNC(=N)NC(=O)c2nc(Cl)c(N)nc2N)cc1 [compound 16313, 2-(4-{4-[N-(3,5-diamino-6-chloropyrazine-2-carbonyl)guanidino]-butyl}phenoxy)-N,N-dimethylacetamide hydrochloride] |  |  | Fold Amiloride** (PSA 4022 = 100) (Capped Pyrazinoylguanidines): 41 ± 7
2 | N=C(NCCCCc1ccc(OCC(=O)NCC(N)=O)cc1)NC(=O)c1nc(Cl)c(N)nc1N [compound 16314, N-carbamoylmethyl-2-(4-{4-[N′-(3,5-diamino-6-chloropyrazine-2-carbonyl)guanidino]butyl}phenoxy)acetamide] |  |  | Fold Amiloride** (PSA 4022 = 100) (Capped Pyrazinoylguanidines): 41 ± 6
3 | N=C(NCCCCc1ccc(OCC(=O)Nc2ncc[nH]2)cc1)NC(=O)c1nc(Cl)c(N)nc1N [compound 16437, 2-(4-{4-[N′-(3,5-diamino-6-chloropyrazine-2-carbonyl)guanidino]-butyl}phenoxy)-N-(1H-imidazol-2-yl)acetamide dihydrochloride] |  |  | Fold Amiloride** (PSA 4022 = 100) (Capped Pyrazinoylguanidines): 77 ± 53
4 | N=C(NCCCCCCN)NC(=O)c1nc(Cl)c(N)nc1N [compound 18706, N-(6-aminohexyl)-N′-(3,5-diamino-6-chloropyrazine-2-carbonyl)guanidine dihydrochloride] | 4 ± 1 | 254 ± 118 nM | 
5 | N=C(N)NCCCCCCCCCNC(=N)NC(=O)c1nc(Cl)c(N)nc1N [compound 19006, N-{9-[N′-(3,5-diamino-6-chloropyrazine-2-carbonyl)guanidino]nonyl}guanidine dihydrochloride] | 11 ± 2 | 60 ± 15 nM | 
6 | N=C(N)NCCCCCCCNC(=N)NC(=O)c1nc(Cl)c(N)nc1N [compound 19155, N-{7-[N′-(3,5-diamino-6-chloropyrazine-2-carbonyl)guanidino]heptyl}guanidine dihydrochloride] | 8 ± 7 | 81 ± 45 nM | 
7 | N=C(NCCCCCCCCCN)NC(=O)c1nc(Cl)c(N)nc1N [compound 19335, N-(9-aminononyl)-N′-(3,5-diamino-6-chloropyrazine-2-carbonyl)-guanidine dihydrochloride] | 19 ± 7 |  | 
8 | N=C(NCCCCCCCCN)NC(=O)c1nc(Cl)c(N)nc1N [compound 19336, N-(8-aminooctyl)-N′-(3,5-diamino-6-chloropyrazine-2-carbonyl)-guanidine dihydrochloride] | 12 ± 3 | 76 ± 18 nM | 
9 | N=C(NCCCCCCCCCCN)NC(=O)c1nc(Cl)c(N)nc1N [compound 19487, N-(10-aminodecyl)-N′-(3,5-diamino-6-chloropyrazine-2-carbonyl)-guanidine dihydrochloride] | 37 ± 1 | 25 ± 11 nM | 
10 | N=C(N)NCCCCCCCCNC(=N)NC(=O)c1nc(Cl)c(N)nc1N [compound 19604, N-{8-[N′-(3,5-diamino-6-chloropyrazine-2-carbonyl)guanidino]octyl}-guanidine dihydrochloride] | 63 ± 61 | 25 ± 27 nM | 
11 | N=C(N)NCCCCCCCCCCNC(=N)NC(=O)c1nc(Cl)c(N)nc1N [compound 23608, N-{10-[N′-(3,5-diamino-6-chloropyrazine-2-carbonyl)guanidino]-decyl}guanidine dihydrochloride] | 41 ± 29 | 17 ± 8 nM | 
12 | N=C(NCCCCCCCCCCCCN)NC(=O)c1nc(Cl)c(N)nc1N [compound 23609, N-(12-aminododecyl)-N′-(3,5-diamino-6-chloropyrazine-2-carbonyl)-guanidine dihydrochloride] | 66 ± 36 | 13 ± 7 nM | 
13 | N=C(NCCCCCCCCCCCN)NC(=O)c1nc(Cl)c(N)nc1N [compound 23682, N-(11-aminoundecyl)-N′-(3,5-diamino-6-chloropyrazine-2-carbonyl)guanidine dihydrochloride] | 51 ± 15 | 12 ± 3 nM | 
14 | N=C(N)NCCCCCCCCCCCCNC(=N)NC(=O)c1nc(Cl)c(N)nc1N [compound 23683, N-{12-[N′-(3,5-diamino-6-chloropyrazine-2-carbonyl)guanidino]dodecyl)guanidine dihydrochloride] | 68 ± 48 | 41 ± 68 nM | 
15 | N=C(N)NCCCCCCCCCCCNC(=N)NC(=O)c1nc(Cl)c(N)nc1N [compound 23991, N-{11-[N′-(3,5-diamino-6-chloropyrazine-2-carbonyl)guanidino]-undecyl}guanidine dihydrochloride] | 20 ± 12 | 64 ± 77 nM | 
16 | N=C(NCCCCc1ccc(C[C@@H](N)CC(=O)O)cc1)NC(=O)c1nc(Cl)c(N)nc1N [compound 24407] |  |  | Fold Amiloride** (PSA 4022 = 100) (Capped Pyrazinoylguanidines): 23 ± 4
17 | N=C(NCCCCC1CCN(CCO)CC1)NC(=O)c1nc(Cl)c(N)nc1N [compound 25193, N-(3,5-diamino-6-chloropyrazine-2-carbonyl)-N′-{4-[1-(2-hydroxyethyl)piperidin-4-yl]butyl}guanidine dihydrochloride] |  |  | Fold Amiloride** (PSA 4022 = 100) (Cyclic Pyrazinoylguanidines): 8 ± 3; EC50 [2]: 99 ± 14 nM
18 | N=C(NCCCCC1CCN(CCCO)CC1)NC(=O)c1nc(Cl)c(N)nc1N [compound 25310, N-(3,5-Diamino-6-chloropyrazine-2-carbonyl)-N′-{4-[1-(3-hydroxypropyl)piperidin-4-yl]butyl}guanidine dihydrochloride] |  |  | Fold Amiloride** (PSA 4022 = 100) (Cyclic Pyrazinoylguanidines): 5 ± 2; EC50 [2]: 169 ± 47 nM
19 | CC(C)(C)OC(=O)NCCCN1CCC(CCCCNC(N)=NC(=O)c2nc(Cl)c(N)nc2N)CC1 [compound 25452, [3-(4-{4-[N′-(3,5-diamino-6-chloropyrazine-2-carbonyl)guanidino]butyl}piperidin-1-yl)propyl]carbamic acid tert-butyl ester] |  |  | Fold Amiloride** (PSA 4022 = 100) (Cyclic Pyrazinoylguanidines): 8 ± 1; EC50 (Selected Cyclic Pyrazinoylguanidines (Formula III), read-out: EC50): 60 ± 6 nM
